Experimental data reported in the kinase profiling compilation of Christmann-Franck et al. (2016).
Several values for one entry are separate records, joined by “and”; a condition that tells them apart may be missing. Identical values can stand only once.

Legend:
Experiment in all cases: radiometric filter-binding kinase assay, Kinase HotSpot
Details in all cases: compound 0.5 µM; ATP 10 µM
PRKACA (human) = PRKACA (human) (UniProt P17612)
CAMK1D (human) = CAMK1D (human) (UniProt Q8IU85)
FES (human) = FES (human) (UniProt P07332)
PAK6 (human) = PAK6 (human) (UniProt Q9NQU5)
EPHA1 (human) = EPHA1 (human) (UniProt P21709)
MET (human) = MET (human) (UniProt P08581)
GSK3A (human) = GSK3A (human) (UniProt P49840)
Sequence of GSK3A (human) (P49840 whole entry, looked up): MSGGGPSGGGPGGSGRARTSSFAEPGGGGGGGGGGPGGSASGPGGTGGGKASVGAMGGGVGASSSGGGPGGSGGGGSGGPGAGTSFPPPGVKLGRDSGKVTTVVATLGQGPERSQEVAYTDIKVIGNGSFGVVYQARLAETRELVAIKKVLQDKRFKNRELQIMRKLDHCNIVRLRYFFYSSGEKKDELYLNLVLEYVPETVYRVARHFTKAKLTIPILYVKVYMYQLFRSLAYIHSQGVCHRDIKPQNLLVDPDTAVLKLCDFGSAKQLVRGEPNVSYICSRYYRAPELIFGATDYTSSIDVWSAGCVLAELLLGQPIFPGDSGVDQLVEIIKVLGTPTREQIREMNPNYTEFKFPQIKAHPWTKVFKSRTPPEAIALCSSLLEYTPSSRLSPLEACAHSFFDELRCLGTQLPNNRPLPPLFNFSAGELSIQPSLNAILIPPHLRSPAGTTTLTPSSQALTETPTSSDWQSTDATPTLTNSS

SYK (human) = SYK (human) (UniProt P43405)
NEK11 (human) = NEK11 (human) (UniProt Q8NG66)
Sequence of NEK11 (human) (Q8NG66 whole entry, looked up): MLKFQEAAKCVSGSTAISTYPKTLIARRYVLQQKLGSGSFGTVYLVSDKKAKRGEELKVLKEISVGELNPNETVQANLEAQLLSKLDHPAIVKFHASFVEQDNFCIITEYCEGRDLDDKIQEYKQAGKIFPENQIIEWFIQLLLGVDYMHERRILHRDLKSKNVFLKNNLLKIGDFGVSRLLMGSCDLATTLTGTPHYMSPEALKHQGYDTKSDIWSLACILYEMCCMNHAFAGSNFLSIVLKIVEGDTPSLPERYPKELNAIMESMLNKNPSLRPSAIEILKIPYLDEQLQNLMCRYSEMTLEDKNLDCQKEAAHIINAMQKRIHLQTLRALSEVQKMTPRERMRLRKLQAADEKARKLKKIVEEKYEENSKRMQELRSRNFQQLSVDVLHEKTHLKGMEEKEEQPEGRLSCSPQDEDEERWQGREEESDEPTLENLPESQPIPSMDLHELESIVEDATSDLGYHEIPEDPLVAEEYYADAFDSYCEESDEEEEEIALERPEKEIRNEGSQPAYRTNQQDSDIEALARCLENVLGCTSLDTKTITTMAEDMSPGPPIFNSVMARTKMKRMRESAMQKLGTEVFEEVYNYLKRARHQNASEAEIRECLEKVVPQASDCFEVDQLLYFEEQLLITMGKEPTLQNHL

MST4 (human) = MST4 (human) (UniProt Q9P289)
CDK2 CCNE1 (human) = CDK2 CCNE1 (human) (UniProt P24941+P24864)
Sequence of CDK2 CCNE1 (human) (P24864 whole entry, looked up, other chains not shown): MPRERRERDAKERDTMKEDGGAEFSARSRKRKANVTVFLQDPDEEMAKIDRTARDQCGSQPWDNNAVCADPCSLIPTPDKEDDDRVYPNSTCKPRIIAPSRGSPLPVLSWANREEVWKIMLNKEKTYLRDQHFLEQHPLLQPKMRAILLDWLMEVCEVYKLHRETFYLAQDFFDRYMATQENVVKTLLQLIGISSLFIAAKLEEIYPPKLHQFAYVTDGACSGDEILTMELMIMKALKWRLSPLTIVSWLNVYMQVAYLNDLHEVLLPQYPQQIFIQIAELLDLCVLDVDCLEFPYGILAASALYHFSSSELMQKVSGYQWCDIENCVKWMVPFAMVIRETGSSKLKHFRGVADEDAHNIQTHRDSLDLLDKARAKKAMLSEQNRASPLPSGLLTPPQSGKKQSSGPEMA

CDK6 CCND1 (human) = CDK6 CCND1 (human) (UniProt Q00534+P24385)
MKNK2 (human) = MKNK2 (human) (UniProt Q9HBH9)
CAMK2B (human) = CAMK2B (human) (UniProt Q13554)
INSRR (human) = INSRR (human) (UniProt P14616)
PRKCD (human) = PRKCD (human) (UniProt Q05655)
MYLK (human) = MYLK (human) (UniProt Q15746)
MAPK10 (human) = MAPK10 (human) (UniProt P53779)
STK39 (human) = STK39 (human) (UniProt Q9UEW8)
EPHB2 (human) = EPHB2 (human) (UniProt P29323)
Sequence of EPHB2 (human) (P29323 whole entry, looked up): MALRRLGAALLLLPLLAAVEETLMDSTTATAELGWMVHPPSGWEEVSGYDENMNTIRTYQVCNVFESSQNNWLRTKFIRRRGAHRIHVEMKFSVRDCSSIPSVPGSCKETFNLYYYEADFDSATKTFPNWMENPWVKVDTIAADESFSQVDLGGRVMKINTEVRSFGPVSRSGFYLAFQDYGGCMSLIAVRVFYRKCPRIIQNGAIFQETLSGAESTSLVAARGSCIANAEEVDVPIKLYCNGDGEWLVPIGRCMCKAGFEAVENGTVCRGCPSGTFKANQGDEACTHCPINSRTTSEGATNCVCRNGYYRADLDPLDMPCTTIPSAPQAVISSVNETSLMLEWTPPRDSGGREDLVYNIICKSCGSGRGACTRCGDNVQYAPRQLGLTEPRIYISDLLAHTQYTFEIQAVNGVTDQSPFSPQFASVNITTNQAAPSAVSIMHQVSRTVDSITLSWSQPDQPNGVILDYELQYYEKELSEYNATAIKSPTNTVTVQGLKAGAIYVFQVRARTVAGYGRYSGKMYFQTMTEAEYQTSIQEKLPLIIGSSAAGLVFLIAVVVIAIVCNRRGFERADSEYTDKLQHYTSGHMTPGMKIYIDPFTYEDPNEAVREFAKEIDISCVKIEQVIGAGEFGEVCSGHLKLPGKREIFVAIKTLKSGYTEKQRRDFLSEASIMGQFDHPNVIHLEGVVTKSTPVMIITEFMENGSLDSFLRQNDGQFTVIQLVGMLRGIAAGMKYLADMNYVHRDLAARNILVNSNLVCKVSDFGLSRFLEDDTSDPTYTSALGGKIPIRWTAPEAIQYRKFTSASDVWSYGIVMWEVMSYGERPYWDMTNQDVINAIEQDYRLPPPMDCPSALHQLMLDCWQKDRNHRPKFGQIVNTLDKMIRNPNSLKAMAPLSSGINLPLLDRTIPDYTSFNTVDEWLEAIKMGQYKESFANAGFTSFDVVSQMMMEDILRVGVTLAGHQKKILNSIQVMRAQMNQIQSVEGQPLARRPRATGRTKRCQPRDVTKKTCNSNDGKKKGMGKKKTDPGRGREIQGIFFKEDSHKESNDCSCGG

STK33 (human) = STK33 (human) (UniProt Q9BYT3)
Sequence of STK33 (human) (Q9BYT3 whole entry, looked up): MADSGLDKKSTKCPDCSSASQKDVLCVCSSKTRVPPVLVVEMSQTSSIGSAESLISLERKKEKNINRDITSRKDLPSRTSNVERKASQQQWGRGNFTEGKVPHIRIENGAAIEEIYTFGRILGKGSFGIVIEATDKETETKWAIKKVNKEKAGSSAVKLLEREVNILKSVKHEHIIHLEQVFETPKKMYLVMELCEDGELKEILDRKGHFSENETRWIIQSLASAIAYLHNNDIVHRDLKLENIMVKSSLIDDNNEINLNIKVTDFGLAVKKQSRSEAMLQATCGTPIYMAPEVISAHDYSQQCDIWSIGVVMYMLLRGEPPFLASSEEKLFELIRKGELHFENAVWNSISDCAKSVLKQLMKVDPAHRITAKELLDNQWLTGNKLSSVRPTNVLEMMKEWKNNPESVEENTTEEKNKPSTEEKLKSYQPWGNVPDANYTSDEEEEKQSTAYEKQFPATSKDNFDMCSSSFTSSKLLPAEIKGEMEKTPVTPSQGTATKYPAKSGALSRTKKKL

SGK2 (human) = SGK2 (human) (UniProt Q9HBY8)
Sequence of SGK2 (human) (Q9HBY8 whole entry, looked up): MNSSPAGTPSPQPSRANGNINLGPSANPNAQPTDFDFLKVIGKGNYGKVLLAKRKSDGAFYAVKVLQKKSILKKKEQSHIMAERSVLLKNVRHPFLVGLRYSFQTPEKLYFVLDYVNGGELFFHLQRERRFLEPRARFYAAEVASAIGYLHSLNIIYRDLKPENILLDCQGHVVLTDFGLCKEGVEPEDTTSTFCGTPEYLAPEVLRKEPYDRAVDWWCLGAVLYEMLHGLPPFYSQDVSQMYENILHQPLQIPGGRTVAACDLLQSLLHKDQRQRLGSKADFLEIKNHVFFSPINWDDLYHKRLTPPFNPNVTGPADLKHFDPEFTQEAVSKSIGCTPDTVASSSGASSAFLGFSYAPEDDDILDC

MINK1 (human) = MINK1 (human) (UniProt Q8N4C8)
WNK2 (human) = WNK2 (human) (UniProt Q9Y3S1)
PRKD1 (human) = PRKD1 (human) (UniProt Q15139)
PIM1 (human) = PIM1 (human) (UniProt P11309)
MAPKAPK5 (human) = MAPKAPK5 (human) (UniProt Q8IW41)
Sequence of MAPKAPK5 (human) (Q8IW41 whole entry, looked up): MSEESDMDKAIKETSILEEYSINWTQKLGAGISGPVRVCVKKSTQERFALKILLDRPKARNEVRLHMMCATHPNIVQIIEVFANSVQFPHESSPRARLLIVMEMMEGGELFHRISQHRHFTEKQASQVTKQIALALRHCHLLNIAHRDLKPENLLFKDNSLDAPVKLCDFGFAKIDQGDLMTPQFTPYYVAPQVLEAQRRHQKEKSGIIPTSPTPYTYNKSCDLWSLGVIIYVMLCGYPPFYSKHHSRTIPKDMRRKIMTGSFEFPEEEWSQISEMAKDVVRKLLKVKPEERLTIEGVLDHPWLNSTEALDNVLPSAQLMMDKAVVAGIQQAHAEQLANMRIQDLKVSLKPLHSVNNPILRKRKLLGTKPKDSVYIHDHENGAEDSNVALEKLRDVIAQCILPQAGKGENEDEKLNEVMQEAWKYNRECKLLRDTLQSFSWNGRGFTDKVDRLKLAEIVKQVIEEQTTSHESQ

NEK9 (human) = NEK9 (human) (UniProt Q8TD19)
ROCK1 (human) = ROCK1 (human) (UniProt Q13464)
PLK2 (human) = PLK2 (human) (UniProt Q9NYY3)
EPHB4 (human) = EPHB4 (human) (UniProt P54760)
DAPK1 (human) = DAPK1 (human) (UniProt P53355)
CDK9 CCNK (human) = CDK9 CCNK (human) (UniProt O75909+P50750)
CLK2 (human) = CLK2 (human) (UniProt P49760)
AURKA (human) = AURKA (human) (UniProt O14965)
Sequence of AURKA (human) (O14965 whole entry, looked up): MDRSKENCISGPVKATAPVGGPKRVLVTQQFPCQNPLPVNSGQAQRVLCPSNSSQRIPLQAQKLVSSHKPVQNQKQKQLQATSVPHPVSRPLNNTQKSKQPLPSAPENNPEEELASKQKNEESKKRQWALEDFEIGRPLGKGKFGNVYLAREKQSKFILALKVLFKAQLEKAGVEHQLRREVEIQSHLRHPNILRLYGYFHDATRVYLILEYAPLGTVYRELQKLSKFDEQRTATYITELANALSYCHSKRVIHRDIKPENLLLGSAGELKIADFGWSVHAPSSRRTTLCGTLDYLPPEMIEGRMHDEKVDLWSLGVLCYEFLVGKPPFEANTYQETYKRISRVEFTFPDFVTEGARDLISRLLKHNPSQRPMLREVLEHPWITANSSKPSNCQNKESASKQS

MAP4K4 (human) = MAP4K4 (human) (UniProt O95819)
MLTK (human) = MLTK (human) (UniProt Q9NYL2)
RPS6KB2 (human) = RPS6KB2 (human) (UniProt Q9UBS0)
ULK2 (human) = ULK2 (human) (UniProt Q8IYT8)
MYLK2 (human) = MYLK2 (human) (UniProt Q9H1R3)
CDK7 CCNH MNAT1 (human) = CDK7 CCNH MNAT1 (human) (UniProt P50613+P51948+P51946)
PRKG1 (human) = PRKG1 (human) (UniProt Q13976)
Sequence of PRKG1 (human) (Q13976 whole entry, looked up): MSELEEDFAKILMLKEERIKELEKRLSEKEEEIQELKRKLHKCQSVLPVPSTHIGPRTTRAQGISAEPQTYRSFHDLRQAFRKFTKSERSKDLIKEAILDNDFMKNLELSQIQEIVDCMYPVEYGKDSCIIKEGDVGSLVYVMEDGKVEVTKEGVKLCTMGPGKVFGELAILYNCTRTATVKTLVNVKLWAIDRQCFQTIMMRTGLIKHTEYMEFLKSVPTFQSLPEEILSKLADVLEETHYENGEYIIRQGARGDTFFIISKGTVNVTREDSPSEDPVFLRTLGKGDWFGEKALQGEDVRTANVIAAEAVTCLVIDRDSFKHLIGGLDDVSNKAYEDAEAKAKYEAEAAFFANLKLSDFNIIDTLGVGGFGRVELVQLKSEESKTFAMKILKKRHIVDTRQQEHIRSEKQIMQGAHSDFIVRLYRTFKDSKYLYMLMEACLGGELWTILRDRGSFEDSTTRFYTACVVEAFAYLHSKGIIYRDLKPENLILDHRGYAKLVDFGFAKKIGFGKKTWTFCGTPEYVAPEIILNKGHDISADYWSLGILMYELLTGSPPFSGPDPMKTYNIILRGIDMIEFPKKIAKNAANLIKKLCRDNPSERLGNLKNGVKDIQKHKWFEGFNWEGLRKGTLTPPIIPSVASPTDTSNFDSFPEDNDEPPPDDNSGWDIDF

CSc1nc(-c2ccc(F)cc2)c(-c2ccnc(NC(C)c3ccccc3)c2)[nH]1 (centres undefined) gave a residual activity (PRKACA (human)) of 96%, a residual activity (CAMK1D (human)) of 91.7% and a residual activity (FES (human)) of 93.8%. It also gave a residual activity (PAK6 (human)) of 93.5%, a residual activity (EPHA1 (human)) of 89.8% and a residual activity (MET (human)) of 116%. The residual activity (GSK3A (human)) was 94.1%, the residual activity (SYK (human)) was 96.8% and the residual activity (NEK11 (human)) was 108%. It also gave a residual activity (MST4 (human)) of 101%, a residual activity (CDK2 CCNE1 (human)) of 88% and a residual activity (CDK6 CCND1 (human)) of 90.9%. It also gave a residual activity (MKNK2 (human)) of 105%, a residual activity (CAMK2B (human)) of 89.2% and a residual activity (INSRR (human)) of 98.9%. For the same molecule, the residual activity (PRKCD (human)) was 89.1%, the residual activity (MYLK (human)) was 100% and the residual activity (MAPK10 (human)) was 125%. The residual activity (STK39 (human)) was 95%, the residual activity (EPHB2 (human)) was 85.4% and the residual activity (STK33 (human)) was 107%. The residual activity (SGK2 (human)) was 96.1%, the residual activity (MINK1 (human)) was 89.6% and the residual activity (WNK2 (human)) was 118%. The residual activity (PRKD1 (human)) was 90.1%, the residual activity (PIM1 (human)) was 91.8% and the residual activity (MAPKAPK5 (human)) was 115%. For the same molecule, the residual activity (NEK9 (human)) was 89.4%, the residual activity (ROCK1 (human)) was 91.7% and the residual activity (PLK2 (human)) was 94.3%. It also gave a residual activity (EPHB4 (human)) of 99.9%, a residual activity (DAPK1 (human)) of 101% and a residual activity (CDK9 CCNK (human)) of 91.1%. The residual activity (CLK2 (human)) was 102%, the residual activity (AURKA (human)) was 99.9% and the residual activity (MAP4K4 (human)) was 91.6%. It also gave a residual activity (MLTK (human)) of 85.7%, a residual activity (RPS6KB2 (human)) of 92.8% and a residual activity (ULK2 (human)) of 94.1%. For the same molecule, the residual activity (MYLK2 (human)) was 102%, the residual activity (CDK7 CCNH MNAT1 (human)) was 97.2% and the residual activity (PRKG1 (human)) was 105%.

Molecule CC(C)[C@H](CO)Nc1nc(Nc2cccc(Cl)c2)c2ncn(C(C)C)c2n1 has a residual activity (PRKACA (human)) of 102%, a residual activity (CAMK1D (human)) of 103% and a residual activity (FES (human)) of 95.9%. The residual activity (PAK6 (human)) was 111%, the residual activity (EPHA1 (human)) was 98.3% and the residual activity (MET (human)) was 96.2%. It also gave a residual activity (GSK3A (human)) of 108%, a residual activity (SYK (human)) of 88.9% and a residual activity (NEK11 (human)) of 67.1%. The residual activity (MST4 (human)) was 100%, the residual activity (CDK2 CCNE1 (human)) was 9.88% and the residual activity (CDK6 CCND1 (human)) was 67.5%. The residual activity (MKNK2 (human)) was 87.5%, the residual activity (CAMK2B (human)) was 94.3% and the residual activity (INSRR (human)) was 88.2%. The residual activity (PRKCD (human)) was 104%, the residual activity (MYLK (human)) was 95.1% and the residual activity (MAPK10 (human)) was 96.7%. It also gave a residual activity (STK39 (human)) of 99.2%, a residual activity (EPHB2 (human)) of 99.3% and a residual activity (STK33 (human)) of 74.4%. The residual activity (SGK2 (human)) was 103%, the residual activity (MINK1 (human)) was 98.6% and the residual activity (WNK2 (human)) was 92.4%. For the same molecule, the residual activity (PRKD1 (human)) was 96.9%, the residual activity (PIM1 (human)) was 104% and the residual activity (MAPKAPK5 (human)) was 97.6%. For the same molecule, the residual activity (NEK9 (human)) was 93.1%, the residual activity (ROCK1 (human)) was 100% and the residual activity (PLK2 (human)) was 102%. It also gave a residual activity (EPHB4 (human)) of 71.7%, a residual activity (DAPK1 (human)) of 99.7% and a residual activity (CDK9 CCNK (human)) of 63.6%. The residual activity (CLK2 (human)) was 21.9%, the residual activity (AURKA (human)) was 80.6% and the residual activity (MAP4K4 (human)) was 84.9%. It also gave a residual activity (MLTK (human)) of 108%, a residual activity (RPS6KB2 (human)) of 101% and a residual activity (ULK2 (human)) of 97.7%. For the same molecule, the residual activity (MYLK2 (human)) was 97.1%, the residual activity (CDK7 CCNH MNAT1 (human)) was 59.5% and the residual activity (PRKG1 (human)) was 71.4% and 90.2%.
